From ChEMBL document CHEMBL1201862, “PubChem BioAssay data set” (2004)
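All cell lines were grown in 96-well plates and treated with compound for 48 hours. GI50: concentration for 50% inhibition of growth.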 The source made the active and inactive calls. No stated cut-off is given here; in the data, active = GI50 up to about 1.1 µM and inactive = higher.

Experiments:
Assay in all cases: DTP human tumour cell line panel, 48 h
786-0 = system: 786-0
A498 = system: A498
A549 = system: A549
ACHN = system: ACHN
BT-549 = system: BT-549
CAKI-1 = system: CAKI-1
CCRF-CEM = system: CCRF-CEM
COLO 205 = system: COLO 205
DU-145 = system: DU-145
EKVX = system: EKVX
HCC 2998 = system: HCC 2998
HCT-116 = system: HCT-116
HCT-15 = system: HCT-15
HL-60 = system: HL-60
HOP-62 = system: HOP-62
HOP-92 = system: HOP-92
HT-29 = system: HT-29
Hs-578T = system: Hs-578T
IGROV-1 = system: IGROV-1
K562 = system: K562
KM12 = system: KM12
LOX IMVI = system: LOX IMVI
M14 = system: M14
MCF7 = system: MCF7
MDA-MB-231 = system: MDA-MB-231
MDA-MB-435 = system: MDA-MB-435
MDA-N = system: MDA-N
MOLT-4 = system: MOLT-4
Malme-3M = system: Malme-3M
NCI-H226 = system: NCI-H226
NCI-H23 = system: NCI-H23
NCI-H460 = system: NCI-H460
NCI-H522 = system: NCI-H522
NCI/ADR-RES = system: NCI/ADR-RES
OVCAR-3 = system: OVCAR-3
OVCAR-4 = system: OVCAR-4
OVCAR-5 = system: OVCAR-5
OVCAR-8 = system: OVCAR-8
PC-3 = system: PC-3
RPMI-8226 = system: RPMI-8226
RXF 393 = system: RXF 393
SF-268 = system: SF-268
SF-295 = system: SF-295
SF-539 = system: SF-539
SK-MEL-28 = system: SK-MEL-28
SK-MEL-2 = system: SK-MEL-2
SK-MEL-5 = system: SK-MEL-5
SK-OV-3 = system: SK-OV-3
SN12C = system: SN12C
SNB-19 = system: SNB-19
SR = system: SR
SW-620 = system: SW-620
T47D = system: T47D
TK-10 = system: TK-10
U-251 = system: U-251
UACC-257 = system: UACC-257
UACC-62 = system: UACC-62
UO-31 = system: UO-31

Question: With `CC(C)(/N=N/C(C)(C)C(=O)NCCO)C(=O)NCCO` as the compound, how does the GI50 (786-0) read?
Answer: > 100 µM (inactive)

Question: And the GI50 (A498)?
Answer: > 100 µM (inactive)

Question: And the GI50 (A549)?
Answer: > 100 µM (inactive)

Question: What about the GI50 (ACHN) of the same compound?
Answer: > 100 µM (inactive)

Question: What about the GI50 (BT-549) of the same compound?
Answer: > 100 µM (inactive)

Question: And the GI50 (CAKI-1)?
Answer: > 100 µM (inactive)

Question: And the GI50 (CCRF-CEM)?
Answer: > 100 µM (inactive)

Question: And the GI50 (COLO 205)?
Answer: > 100 µM (inactive)

Question: And the GI50 (DU-145)?
Answer: > 100 µM (inactive)

Question: What about the GI50 (EKVX) of the same compound?
Answer: > 100 µM (inactive)

Question: And the GI50 (HCC 2998)?
Answer: > 100 µM (inactive)

Question: What about the GI50 (HCT-116) of the same compound?
Answer: > 100 µM (inactive)

Question: And the GI50 (HCT-15)?
Answer: > 100 µM

Question: What about the GI50 (HL-60) of the same compound?
Answer: > 100 µM (inactive)

Question: What about the GI50 (HOP-62) of the same compound?
Answer: > 100 µM (inactive)

Question: What about the GI50 (HOP-92) of the same compound?
Answer: > 100 µM (inactive)

Question: What about the GI50 (HT-29) of the same compound?
Answer: > 100 µM (inactive)

Question: And the GI50 (Hs-578T)?
Answer: > 100 µM (inactive)

Question: And the GI50 (IGROV-1)?
Answer: > 100 µM (inactive)

Question: And the GI50 (K562)?
Answer: > 100 µM (inactive)

Question: And the GI50 (KM12)?
Answer: > 100 µM (inactive)

Question: And the GI50 (LOX IMVI)?
Answer: > 100 µM (inactive)

Question: What about the GI50 (M14) of the same compound?
Answer: > 100 µM (inactive)

Question: What about the GI50 (MCF7) of the same compound?
Answer: > 100 µM (inactive)

Question: What about the GI50 (MDA-MB-231) of the same compound?
Answer: > 100 µM (inactive)

Question: What about the GI50 (MDA-MB-435) of the same compound?
Answer: > 100 µM (inactive)

Question: What about the GI50 (MDA-N) of the same compound?
Answer: > 100 µM (inactive)

Question: What about the GI50 (MOLT-4) of the same compound?
Answer: > 100 µM (inactive)

Question: What about the GI50 (Malme-3M) of the same compound?
Answer: > 100 µM (inactive)

Question: And the GI50 (NCI-H226)?
Answer: > 100 µM (inactive)

Question: What about the GI50 (NCI-H23) of the same compound?
Answer: > 100 µM (inactive)

Question: What about the GI50 (NCI-H460) of the same compound?
Answer: > 100 µM (inactive)

Question: And the GI50 (NCI-H522)?
Answer: 39.7 µM (inactive)

Question: And the GI50 (NCI/ADR-RES)?
Answer: > 100 µM (inactive)

Question: What about the GI50 (OVCAR-3) of the same compound?
Answer: > 100 µM (inactive)

Question: And the GI50 (OVCAR-4)?
Answer: > 100 µM (inactive)

Question: What about the GI50 (OVCAR-5) of the same compound?
Answer: > 100 µM (inactive)

Question: What about the GI50 (OVCAR-8) of the same compound?
Answer: > 100 µM (inactive)

Question: And the GI50 (PC-3)?
Answer: > 100 µM (inactive)

Question: And the GI50 (RPMI-8226)?
Answer: > 100 µM (inactive)

Question: And the GI50 (RXF 393)?
Answer: > 100 µM (inactive)

Question: What about the GI50 (SF-268) of the same compound?
Answer: > 100 µM (inactive)

Question: What about the GI50 (SF-295) of the same compound?
Answer: > 100 µM (inactive)

Question: What about the GI50 (SF-539) of the same compound?
Answer: > 100 µM (inactive)

Question: What about the GI50 (SK-MEL-28) of the same compound?
Answer: > 100 µM (inactive)

Question: And the GI50 (SK-MEL-2)?
Answer: > 100 µM (inactive)

Question: And the GI50 (SK-MEL-5)?
Answer: > 100 µM (inactive)

Question: And the GI50 (SK-OV-3)?
Answer: > 100 µM (inactive)

Question: And the GI50 (SN12C)?
Answer: > 100 µM (inactive)

Question: What about the GI50 (SNB-19) of the same compound?
Answer: > 100 µM (inactive)

Question: What about the GI50 (SR) of the same compound?
Answer: > 100 µM (inactive)

Question: And the GI50 (SW-620)?
Answer: > 100 µM (inactive)

Question: And the GI50 (T47D)?
Answer: > 100 µM (inactive)

Question: What about the GI50 (TK-10) of the same compound?
Answer: > 100 µM (inactive)

Question: And the GI50 (U-251)?
Answer: > 100 µM (inactive)

Question: And the GI50 (UACC-257)?
Answer: > 100 µM (inactive)

Question: What about the GI50 (UACC-62) of the same compound?
Answer: > 100 µM (inactive)

Question: And the GI50 (UO-31)?
Answer: > 100 µM (inactive)
